Legend:
[1] = test system: KBV-1 cells (multidrug-resistant variant, overexpress MDR1); assay: MTT cytotoxicity assay, KBV-1; assay type: cell-based, human
Experimental: The cytotoxicity was determined using the as MTT-microtiter plate tetrazolinium cytotoxicity assay (MTA) following the procedures of F. Denizot et al., J. Immunol. Methods, 89, 271 (1986); J. Carmichael et al., Cancer Res, 47, 936 (1987) and T. J. Mosmann et al., Immunol. Methods, 65, 55 (1983). The human lymphoblast RPMI 8402 and its camptothecin-resistant variant cell line, CPT-K5 were provided by Dr. Toshiwo Andoh (Aichi Cancer Center Research Institute, Nagoya, Japan). See, for example, T. Andoh et al., Adv. Pharmacol., 29B, 93 (1994). The cytotoxicity assay was performed using 96-well microtiter plates. Cells were grown in suspension at 37 ° C. in 5% CO2 and maintained by regular passage in RPMI medium supplemented with 10% heat inactivated fetal bovine serum, L-glutamine (2 mM), penicillin (100 U/ml), and streptomycin (0.1 mg/ml). For determination of IC50, cells were exposed continuously with varying concentrations of drug concentrations and MTT assays were performed at the end of the fourth day.
The drug sensitive human epidermoid carcinoma KB3-1 cell line (S. Aliyama et al., Somatic Cell Mol. Genet., 11, 117 (1985)) and its vinblastine-selected multidrug-resistant variant KBV-1 cells (D. W. Shen et al., Science, 32, 643 (1986)) were provided by Dr. Michael Gottesmann (National Cancer Institute, Bethesda, Md.). […]

[2] = test system: yeast cells expressing yeast topoisomerase I; assay: Yeast cytotoxicity assay, yeast topoisomerase I; assay type: cell-based, S. cerevisiae
Description: The topoisomerase I-specific in vivo cytotoxicity assay was adapted from A. M. Knab et al., J. Biol. Chem., 268, 22322 (1993). In this system, various topoisomerase I genes or cDNAs cloned into the single-copy yeast plasmid vector (YCpGAL1; Knab et al., cited above) are expressed under the control of the GAL1 promoter in the JN2-134 strain of S. cerevisiae (MAT, rad52::Leu2, trp1, ade2-1, his7, ura3-52, ise1, top1-1, and leu2; M. A. Bjornsti et al., Cancer Res., 49, 6318 (1989)). The topoisomerase I gene or cDNA constructs in the vector are, respectively, the wild-type yeast topoisomerase I gene (YCpGAL-ScTOP1; need cite (1989)), a nonfunctional topoisomerase I gene where the active site tyrosine-727 is mutated to phenylalanine (YCPGAL1-Sctop1Y727; A. M. Knab et al., J. Biol. Chem., 268, 22322 (1993)), and the wild-type human topoisomerase I cDNA (YCp-GAL-hTOP1; M. A. Bjornsti et al., Cancer Res., 49, 6318 (1989)).
To qualitatively test the cytotoxicity and the topoisomerase I specificity of the drugs, yeast cells containing the specified plasmid were grown in dropout medium supplemented with uracil, 2% galactose, and the drug being tested.

Row | SMILES | difference between IC50 values in KB 3-1 and KB V-1 cells [1] | cytotoxicity to yeast cells expressing functional yeast topoisomerase I [2] | resistance of yeast cells expressing yeast topoisomerase I relative to yeast cells expressing human topoisomerase I [2]
1 | c1ccc(-c2ccc3[nH]c(-c4ccc5[nH]c(-c6ccc7[nH]cnc7c6)nc5c4)nc3c2)cc1 [Compound 13, 5-Phenyl-2-[2'(benzimidazol-5"-yl)benzimidazol-5'-yl]benzimidazole] | little difference |  | 
2 | CC[C@@]1(O)C(=O)OCc2c1cc1n(c2=O)Cc2cc3ccccc3nc2-1 [camptothecin] |  | camptothecin-sensitive | at least ten times more resistant

From patent US5770617A, “Terbenzimidazoles useful as antifungal agents” (Rutgers, The State University of New Jersey, priority 1997, dated 1998)
